# Source: patent US8822541B2, “Use of targeted nitroxide agents in mitigating or treating radiation injury” (University of Pittsburgh—Of the Commonwealth System of …, priority 2008, dated 2014)
# Key:
# [1] = tested on: mice exposed to total body irradiation; assay: Survival of mice after total body irradiation; assay type: in vivo, mouse
# Procedure: Mice received intraperitoneal injection of 10 mg. per kilogram of each of the chemicals indicated in FIG. 5, then 24 hours later received 9.75 Gy total body irradiation according to published methods. Mice were followed for survival according to IACUC regulations. […] (P=0.0008).
# Groups of 15 mice received intraperitoneal injection of 10 mg. per kilogram of each indicated GS-nitroxide compound or carrier (Cremphora plus alcohol at 1 to 1 ratio, then diluted 1 to 10 in distilled water). Mice received 10 mg per kilogram intra-peritoneal injection 24 hours prior to total body irradiation. Control mice received radiation alone. […] (P=0.0005)
# C57BL/6NHsd female mice were irradiated to 9.5 Gy whole body irradiation. At 10 min, 30 min, 1 hr, 4 hr, or 8 hr after irradiation, the mice were injected intraperitoneally with JP4-039 (10 mg/kg). The mice were followed for the development of the irradiation induced hematopoietic syndrome.
# Mice were irradiated to 9.5 Gy and injected IP 10 minutes later with concentration of JP-4-039 ranging from 0.5 mg/kg to 10 mg/kg. The mice were followed for developments of the hematopoietic syndrome. The optimal dose of JP4-039 providing the best irradiation protection is 5 mg/kg.
# [2] = tested on: KM101 human marrow stromal cells; assay: Irradiation survival of KM101 marrow stromal cells; assay type: cell-based; settings: 10 μM; for n (shoulder): control 1.1
# Procedure: KM101 cells were incubated in media alone or in JP4-039 (10 μM) for one hour before irradiation or 24 hours after irradiation. The cells were irradiated to doses ranging from 0 to 6 Gy and plated in 4 well plates. Seven days later the cells were stained with crystal violet and colonies of greater than 50 cells counted. Cells incubated in JP4-039 either before or after irradiation were more radioresistant as shown by an increased shoulder of n=2.3±0.2 or 2.2±0.2, respectively compared to n of 1.1±0.1 for the KM101 cells (p=0.0309 or 0.0386, respectively).
# Sprague Dawley rats = assay: Survival of rats subjected to volume-controlled hemorrhagic shock; assay type: in vivo, rat; settings: 2 μmol/kg iv
# Procedure: Survival of rats subjected to volume-controlled hemorrhagic shock. Following surgical preparation and a 5-min stabilization period to obtain baseline readings, rats were subjected to hemorrhagic shock. Bleeding was carried out in 2 phases.
# Initially, 21 ml/kg of blood was withdrawn over 20 min. Immediately thereafter, an additional 12.5 ml/kg of blood was withdrawn over 40 min. Thus, hemorrhage occurred over a total period of 60 min and the total blood loss was 33.5 ml/kg or approximately 55% of the total blood volume. Rats were randomly assigned to receive XJB-5-131 (2 μmol/kg) or its vehicle, a 33:67 (v/v) mixture of DMSO and normal saline. XJB-5-131 solution or vehicle alone was administered as a continuous infusion during the last 20 min of the hemorrhage period. The total volume of fluid infused was 2.8 ml/kg and it was administered intravenously using a syringe pump (KD100, KD Scientific, New Hope, Pa.). […] At the end of the 6 hour observation period, animals that were still alive were euthanized with an overdose of KCl.
# Blood pressure was recorded continuously using a commercial strain-gauge transducer, amplifier, and monitor (S90603a, SpaceLabs, Redmond, Wash.). Blood samples (0.5 ml) were collected from the jugular vein at the beginning of hemorrhage (baseline), at the end of hemorrhage (shock) and at the end of resuscitation (resuscitation). Hemoglobin concentration [Hb], lactate and glucose concentration were determined using an auto-analyzer (Model ABL 725, Radiometer Copenhagen, Westlake, Ohio).
# A total of sixteen rats were tested in this study. Rats were treated with 2.8 ml/kg of vehicle or the same volume of XJB-5-131 solution during the final 20 min of the bleeding protocol. The total dose of XJB-5-131 infused was 2 μmol/kg. Following profound hemorrhagic shock consistent with the protocol described above for the prior studies, thirteen survived for at least 60 min and received the full dose of either XJB-5-131 solution or the vehicle, a 33:67 (v/v) mixture of DMSO and normal saline. […] None of the between-group differences were statistically significant.
# [3] = tested on: Ercc1−/cond; K14-Cre mice; assay: Photoaging after UV-B in Ercc1−/cond; K14-Cre mice; assay type: in vivo, mouse; settings: 80 ug in cream daily for five days
# Procedure: As a measure of the effect of XJB-5-131 on photoaging, Ercc1^−/cond; K14-Cre mice, which are missing ERCC1 only in the skin, were shaved, treated with a depilatory then irradiated with UV-B light to induce a sunburn (500 J/m^2, the median erythemal dose). Subsequently, the mice were treated with XJB-5-131 (80 ug) emulsified in a cream daily for five days.
smiles,measurement,setting,value
"CC(C)C[C@@H](/C=C/CC(=O)NC1CC(C)(C)N([O])C(C)(C)C1)NC(=O)OC(C)(C)C [JP4-039, TEMPO-4-yl-(S,E)-5-(tert-butoxycarbonylamino)-7-methyloct-3-enamide]",survival of mice,"[1]; 9.5 Gy TBI, 10 mg/kg ip 24 hours prior",increases survival
same,optimal time of delivery for radiation mitigation,"[1]; 9.5 Gy, 10 mg/kg ip after irradiation",1 h
same,optimal dose providing the best irradiation protection,"[1]; 9.5 Gy, IP 10 minutes after irradiation",5 mg/kg
same,survival of mice,"[1]; 9.75 Gy TBI, 10 mg/kg ip 24 hours before",significant increase in survival
same,n (shoulder),[2]; 24 hours after irradiation,2.2±0.2
same,Do,[2]; before or after irradiation,no significant change
same,n (shoulder),[2]; one hour before irradiation,2.3±0.2
CC(C)C[C@@H](/C=C/[C@H](Cc1ccccc1)C(=O)N1CCC[C@H]1C(=O)N[C@H](C(=O)N[C@@H](CCCNC(=O)OCc1ccccc1)C(=O)NC1CC(C)(C)N([O])C(C)(C)C1)C(C)C)NC(=O)OC(C)(C)C [XJB-5-131],rats surviving longer than 3 hours after completion of the hemorrhage protocol,Sprague Dawley rats,Three of the six
same,rats surviving the whole 6 hour post-bleeding observation period,Sprague Dawley rats,one rat
same,survival time versus vehicle,Sprague Dawley rats; no resuscitation,survived significantly longer
same,appearance of UV-B irradiated skin,[3],much more smooth and healthy
